In publication PMC11458808, “Identification and development of a series of disubstituted piperazines for the treatment of Chagas disease” (European Journal of Medicinal Chemistry, 2022):
In brackets after ≈: the same amount, converted by molar mass. Each block holds one compound with its values, some of them ahead of it.

What was measured:
[1] = Aqueous (kinetic) solubility by CAD; type: physicochemical; conditions: kinetic solubility measured by CAD
Method: 2.1 Aqueous solubility: This assay was conducted as previously described in [4].

[2] = system: intracellular T. cruzi X10/7-E2Crimson; assay: Rate-of-kill studies; type: cell-based, Trypanosoma cruzi; conditions: compared with posaconazole (CYP51 inhibitor)
Method: 1.3 Rate-of-kill studies: Experiments with intracellular T. cruzi X10/7-E2Crimson were carried out as previously described in [2].

[3] = ChromLogD pH7.4 (chromatographic hydrophobicity index); type: physicochemical; conditions: pH 7.4; CHIpH7.4 × 0.0857–2; read-out: ChromlogDpH7.4
[4] = system: intracellular T. cruzi X10/7 A1 amastigotes; assay: Intracellular T. cruzi assay; type: cell-based, Trypanosoma cruzi; conditions: Trypanosoma cruzi; potency against intracellular T. cruzi amastigotes; at least three independent replicates, standard deviations ≤0.2; read-out: T. cruzi (pEC50) (converted)
Method: 1.1 Intracellular T. cruzi assay: Potency against intracellular T. cruzi X10/7 A1 amastigotes was determined as described previously with as sole modification that the compound treatment duration was increased from 72h to 96h.

[5] = Intrinsic clearance in mouse liver microsomes; type: in vitro ADME; conditions: mouse liver microsomal intrinsic clearance
Method: 2.2 Intrinsic clearance: This assay was conducted as previously described in [5].

[6] = Blood exposure in the acute efficacy study; type: in vivo, mouse; conditions: days 1 and 5; 50 mg/kg b.i.d. with 1-ABT
Method: (§1) (Supplementary Information, Fig. S1). We tested 1 in a T. cruzi washout assay to assess the compound's ability to clear all parasites in vitro. In this experiment, T. cruzi, cultured in Vero cells were treated with compound 1 at 20- to 30-fold the EC50 for 8 days (with compound being re-supplemented after 4 days). After treatment, the culture medium containing compound 1 was removed, the cell monolayer was washed extensively and then incubated with fresh medium containing no compound 1. […] The same result was obtained in three independent experiments (Supplementary Information, Table S1). […] We therefore ran a 4-day PK study on 1, dosing at 50 mg/kg twice daily. As the intrinsic clearance was very high, compound 1 was co-dosed with 1-ABT (1-aminobenzotriazole) to inhibit CYP-mediated degradation and maximise exposure. […] As this was a novel series with an unknown mechanism of action, the PKPD drivers were unknown, so this coverage was considered suitable for progression to an animal model of Chagas disease. […]
(§2) Fig. 2 Results of acute T. cruzi infection efficacy study. […] 5 day dosing begins on day 14 (b) Quantification (Total Flux [p/s]) of combined ventral and dorsal bioluminescence for the mice shown in (c). […] (For interpretation of the references to colour in this figure legend, the reader is referred to the Web version of this article.)

[7] = system: T. cruzi; assay: Acute Chagas disease mouse efficacy study (bioluminescence imaging); type: in vivo, Trypanosoma cruzi
Method: as §1
as §2, with “article.) […]” for “article.)”

[8] = target: T. cruzi CYP51 (Trypanosoma cruzi, UniProt Q7Z1V1); assay: CYP51 assay; type: biochemical; conditions: read-out: T.cruzi CYP51 (pIC50) (converted)
Method: 1.4 CYP51 assay: Potency against T. cruzi CYP51 was determined as previously described in [3].

[9] = system: T. cruzi infected Vero cells; assay: Washout assay; type: cell-based, Trypanosoma cruzi; conditions: for Relapse Day: 8 days treatment
Method: (Supplementary Information, Fig. S1). We tested 1 in a T. cruzi washout assay to assess the compound's ability to clear all parasites in vitro. In this experiment, T. cruzi, cultured in Vero cells were treated with compound 1 at 20- to 30-fold the EC50 for 8 days (with compound being re-supplemented after 4 days). After treatment, the culture medium containing compound 1 was removed, the cell monolayer was washed extensively and then incubated with fresh medium containing no compound 1. […] The same result was obtained in three independent experiments (Supplementary Information, Table S1). […] We therefore ran a 4-day PK study on 1, dosing at 50 mg/kg twice daily. As the intrinsic clearance was very high, compound 1 was co-dosed with 1-ABT (1-aminobenzotriazole) to inhibit CYP-mediated degradation and maximise exposure. […] As this was a novel series with an unknown mechanism of action, the PKPD drivers were unknown, so this coverage was considered suitable for progression to an animal model of Chagas disease. Compound 1 was dosed twice daily at 50 mg/kg for 5 days in an acute Chagas disease mouse efficacy study. This mouse model, developed by the Kelly laboratory, is able to distinguish between benznidazole (clinically effective) and posaconazole (clinically ineffective).
1.2 Washout assay: Vero cells were infected overnight at MOI 5 with T. cruzi X10/7 A1 trypomastigotes in MEM media (Gibco) containing 10% FCS (Hyclone) followed by washing of the monolayer to remove any extracellular trypomastigotes. 24 h later, infected cells were trypsinised and plated in T25 flasks in presence of compounds at the indicated concentrations and incubated for 8 days in MEM media (Gibco) containing 1% FCS. Four days into the treatment the media was replaced with fresh compound-containing media. After the treatment period, monolayers were washed extensively. The cultures were then maintained, replacing media twice weekly, until trypomastigotes could be observed by light microscopy. Observations were carried out twice weekly for up to 60 days post washout.
Results for three independent washout experiments (experiment c is reported in the main manuscript). T. cruzi infected Vero cells were treated for 8 days at the indicated concentrations (compounds replenished after 4 days), followed by extensive washing to remove compounds and incubation until parasites were observed microscopically. ^a day after washout of compounds on which egressed parasites were detected first.

[10] = system: intracellular T. cruzi; set-up: method as in PMID 25740547; conditions: HTS in NIH-3T3 fibroblasts; cited from earlier work

Sequence of T. cruzi CYP51 (Q7Z1V1 whole entry): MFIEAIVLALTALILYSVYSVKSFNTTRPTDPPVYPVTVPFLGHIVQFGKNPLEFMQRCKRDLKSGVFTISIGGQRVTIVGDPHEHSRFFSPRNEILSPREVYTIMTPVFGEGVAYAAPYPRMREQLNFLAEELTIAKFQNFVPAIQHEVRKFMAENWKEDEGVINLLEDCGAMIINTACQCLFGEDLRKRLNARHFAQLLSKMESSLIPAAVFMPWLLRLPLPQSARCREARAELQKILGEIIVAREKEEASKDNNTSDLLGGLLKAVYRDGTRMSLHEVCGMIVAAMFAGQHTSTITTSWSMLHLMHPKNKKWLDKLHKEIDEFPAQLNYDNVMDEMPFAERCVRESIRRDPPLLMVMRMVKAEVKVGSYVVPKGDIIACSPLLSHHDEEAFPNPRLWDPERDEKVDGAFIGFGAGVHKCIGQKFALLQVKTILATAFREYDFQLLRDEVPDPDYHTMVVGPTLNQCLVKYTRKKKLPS

SMILES: Cc1ccc(S(=O)(=O)Nc2ccc(CN3CCN(C(=O)c4cccc(Cl)c4)CC3)cc2)cc1 [Compound 1, N-(4-((4-(3-chlorobenzoyl)piperazin-1-yl)methyl)phenyl)-4-methylbenzenesulfonamide]
solubility [1]: 38 µM (≈ 18.4 µg/mL) | Rate-of-kill profile [2]: faster kill profile | chromatographic logD [3]: 5.8 | EC50 [4]: 0.158 µM | Mouse CLi [5]: >50 mL/min/g | Total blood exposure relative to in vitro EC99 [6]: exceeded the in vitro EC99 for the duration of dosing | Outcome after immunosuppression ([7]; 50 mg/kg b.i.d. for 5 days with 1-ABT, cyclophosphamide 200 mg/kg i.p. days 28, 32, 36): relapse is observed post immunosuppression | Parasite burden ([7]; 50 mg/kg b.i.d. for 5 days, 1-ABT 50 mg/kg pre-treatment, compared to vehicle): reduction in parasite burden compared to vehicle | IC50 [8]: 20 µM | Time after washout until parasite relapse was observed ([9]; 20- to 30-fold the EC50 for 8 days, re-supplemented after 4 days): ~2 weeks | Relapse Day ([9]; experiment a, 5 µM, 32-fold EC50): 11 days | Relapse Day ([9]; experiment b, 5.5 µM, 35-fold EC50): 14 days | Relapse Day ([9]; experiment c, 3.9 μM, 25-fold EC50, day after washout on which egressed parasites first detected): 11 days

solubility [1]: 85 µM (≈ 40.3 µg/mL) | chromatographic logD [3]: 4.8 | Mouse CLi [5]: 30 mL/min/g
SMILES: Cc1ccc(S(=O)(=O)Nc2ccc(CN3CCN(C(=O)c4cccc(C#N)c4)CC3)cc2)cc1 [TCMDC-143497]
T. cruzi pEC50 (reported potency) [10]: 6.4

SMILES: O=C(Cn1ccnc1[N+](=O)[O-])NCc1ccccc1 [benznidazole]
Relapse Day ([9]; experiment a, replicate 1, 36 µM, 12.5-fold EC50): 18 days | Relapse Day ([9]; experiment a, replicate 2, 36 µM, 12.5-fold EC50): 14 days | Relapse Day ([9]; experiment b, 36 µM, 12.5-fold EC50): 14 days | Relapse Day ([9]; experiment c, 36 μM, 12.5-fold EC50): 18 days | Relapse Day ([9]; experiment c, 144 μM, 50-fold EC50, observed up to 60 days): >60 days

SMILES: CC[C@@H]([C@H](C)O)n1ncn(-c2ccc(N3CCN(c4ccc(OC[C@@H]5CO[C@@](Cn6cncn6)(c6ccc(F)cc6F)C5)cc4)CC3)cc2)c1=O [posaconazole]
Relapse Day ([9]; experiment a, 0.2 µM, 50-fold EC50): 7 days | Relapse Day ([9]; experiment b, 0.2 µM, 50-fold EC50): 11 days | Relapse Day ([9]; experiment c, 0.1 μM, 25-fold EC50): 7 days
